From paper PMC10301845, “Characterization of a Novel M4 PAM PET Radioligand [11C]PF06885190 in Nonhuman Primates (NHP)” (Molecules, 2023)

Tests used:
[1] = Stability of the radioligand in the formulation (analytical HPLC); format: physicochemical; conditions: sterile PBS formulation; up to 60 min / 1 h after end of synthesis
Experimental: The radiochemical purity and stability of [^11C]PF06885190 was determined by an analytical HPLC system coupled with an analytical XBridge column (C18 5 µm, 4.6 × 150 mm particle size), a Merck Hitachi L-7100 Pump, a L-7400 UV detector and a GM-tube for radioactivity detection (VWR International). A mixture of acetonitrile (30%) and HCO2NH4 (0.1 M aq. solution) (70%) with a flow rate of 2 mL/min was used as the HPLC isocratic mobile phase. The HPLC elution profile was monitored with an UV absorbance detector (ƛ = 254 nm) coupled to a radioactive detector (BETA-flow, Beckman, Fullerton, CA). [^11C]PF-06885190 was eluted with a retention time of (tR) 4.0–4.5 min (Figure S3, Supplementary Material) and the run time of the HPLC program was 8 min. The identity of the radiolabeled compounds was confirmed by HPLC with the co-injection of the corresponding authentic reference standard. The MA was calculated by analytical HPLC following the method described previously reported.

[2] = Radiometabolite analysis in NHP blood plasma (gradient HPLC); format: in vivo, cynomolgus monkey
Experimental: Radiometabolites in NHP blood plasma were analyzed following a previously published method. A reverse-phase HPLC system with an UV absorbance detector (ƛ = 254 nm) coupled to a radio detector was used to determine the percentages of radioactivity corresponding to [^11C]PF06885190 and its radioactive metabolites during whole PET measurement. Arterial blood samples (0.7–1.5 mL) were obtained using an automated blood sampling system from the monkey at different time points such as 2, 5, 15, 30 and 60 min after injection of [^11C]PF06885190 following a previously described method. Plasma was separated from collected blood by centrifuging at 4000 rpm for 2 min. The obtained plasma was diluted with 1.4 times volume of acetonitrile and then centrifuged at 6000 rpm for 4 min. The extract was separated from the pellet and was diluted with water (3 mL) before being injected into the HPLC system. The HPLC system was coupled to an Agilent binary pump (Agilent 1200 series) which was connected to a manual injection valve (7725i, Rheodyne), a 5.0 mL loop, and a radiation detector (Oyokoken, S-2493Z) housed in a shield of 50 mm thick lead. A semi-preparative reverse-phase, an ACE 5µm C18 HL column ([…]), was used to achieve the chromatographic separation (Figure S4A,B, Supplementary Material) of the radiometabolites from the unchanged parent compound [^11C]PF06885190 by gradient elution. Acetonitrile (A) and 0.1 M amoniumformate (B) were used as the mobile phase at flow rate 5.0 mL/min, according to the following program: 0−4.0 min, (A/B) 40:60 → 90:10 v/v; 4.0−6.0 min, (A/B) 90:10 v/v. a radioactive peak corresponding to [^11C]PF06885190 eluted from the HPLC column was integrated and the area was expressed as a percentage of the sum of the areas of all detected radioactive compounds. To calculate the recovery of radioactivity from the system, the eluate from the HPLC column was measured in a capintec dose calibrator and divided by the amount of total radioactivity injected into the HPLC.

Cc1nc(N[11CH3])c2c(c1C)CN(C(=O)C[C@H]1C[C@@H]1c1ccc(F)nc1)C2 [[^11C]PF06885190]
stability in formulation, radiochemical purity [1]: exceeding 99%
parent compound in plasma ([2]; 5 min after injection): approximately 95%
parent compound in plasma ([2]; 60 min, after pretreatment with CVL-231): about 20%
parent compound in plasma ([2]; 60 min, after pretreatment with donepezil): about 30%
parent compound in plasma ([2]; 60 min, baseline condition): about 20%
